Key:
SERCA (SR vesicles) = assay: Activation of SERCA, increase in Vmax; assay type: biochemical
Procedure: Test compounds were characterized over a range of concentrations using an NADH-linked, enzyme-coupled ATPase assay. Each well contained 2 mg or 7 mg of SR vesicles (optimized for skeletal or cardiac SR, respectively), 50 mM MOPS (pH 7.0), 100 mM KCl, 5 mM MgCl2, 1 mM EGTA, 0.2 mM NADH, 1 mM phosphoenol pyruvate, 5 IU pyruvate kinase, 5 IU lactate dehydrogenase, and 3.5 mg/mL A23187 (a calcium ionophore), and CaCl2 was added to set free [Ca2+] to the specific values. The assay was started upon addition of ATP at a final concentration of 5 mM, and read in a SpectraMax Plus microplate spectrophotometer and the ATPase activities were fitted using the Hill function.

N2a cells [1] = assay: Protection against thapsigargin (TG)-induced cell death, N2a; assay type: cell-based, mouse; details: compound 20 μM; thapsigargin 1 μM; 24 hrs
Procedure: (§1) Protection against Thapsigargin (TG)-induced Cell-death. Human embryonic kidney (HEK293) cells were grown in Dulbecco's Modified Eagle's Medium (DMEM) with 10% FBS and 1% antibiotic antimycotic solution (ABAM). Mouse neuroblastoma (N2a) cells were grown in 1:1 DMEM:OPTI-MEM® with 5% FBS and 1% ABAM. All cells were grown in 10% CO2 in a humidified environment of the incubator. Cells grown in 96-well plates were exposed to a test compound (20 μM) for 2 hrs before addition of thapsigargin (15 μM for HEK293 cells and 1 μM for N2a cells) to induce ER stress. After incubation in cell-culture incubator for 24 hrs, ALAMARBLUE® regent (10% v/v) was added to the wells. Fluorescence reading was taken 2 hrs after the addition of the ALAMARBLUE® regent. Cell-viability was calculated as a percentage of relative fluorescence unit (RFU) compared to control.
(§2) The results are summarized in Table 2, where A represents a value greater than 50% cell rescue, B represents a value between 10% to 50% cell rescue, C represents a value between 1% to 10% cell rescue, and D represents a value no greater than 1% cell rescue.

CSM14.1 cells = assay: ER stress cell survival assay (thapsigargin); assay type: cell-based; details: for EC50: dose-response; for Cell Survival: compound 2 μM, about 15 μM thapsigargin, CSM14.1 cells;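 on cell survival: survival read as CellTiter-Glo luminescence after overnight incubation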
Procedure: ER Stress Cell Survival Assay
CSM14.1 cells were maintained in Complete Medium at 32° C.; wherein the Complete Medium contained Dulbecco's modified eagle medium (DMEM) with 10% fetal bovine serum (FSB), 1% L-glutamine, 100 IU/mL penicillin, and 100 μg/mL streptomycin. The cells were recovered from cultures by trypsinization and then seeded in 384 well plates (Greiner #781098) at a concentration of 1,000 cells/well in 20 μL of DMEM Assay Medium, wherein the DMEM Assay Medium contained 2% FBS, 100 IU/mL penicillin, and 100 μg/mL streptomycin. Seeding was performed using a MultiDrop Combi reagent broadcaster. The plates were incubated overnight at 32° C.
A test compound was prepared by 2-fold serial dilution in 100% DMSO using a BIOMEK® 2000 liquid handler (Beckman Coulter). A dose-response curve containing 10 concentrations of the test compound was obtained. Using a BIOMEK® FX liquid handler (Beckman Coulter), 2.5 μL of the test compound was transferred from the 100% DMSO serial dilution plate to an intermediate plate containing 47.5 μL of DMEM Assay Medium containing 2% FBS, 100 IU/mL penicillin, and 100 μg/mL streptomycin and mixed. To reduce or eliminate the interference from the compound's precipitation, 6 μL of the diluted compound was immediately transferred to the assay plate to achieve a high compound concentration of 100 μM in 99% DMEM Assay Medium and 1% DMSO. After the assay plates were incubated for 2 hrs, 4 μL of 112.5 μM thapsigargin (TG) (DMSO stock diluted into Assay TC Medium) was dispensed into each testing well with a MultiDrop Combi reagent broadcaster for a final concentration of about 15 μM TG. The tissue culture media (4 μL) containing vehicle only was transferred manually to each control cell using a 16 channel electronic pipette. […] High luminescence indicates cell survival.
Alternatively, a test compound was tested at a single compound concentration (e.g., 2 μM) to determine the effect of the compound on cell survival in comparison with vehicle.

N2a cells [2] = assay: Protection against hydrogen peroxide-induced cell death, N2a; assay type: cell-based, mouse; details: compound 40 μM; hydrogen peroxide 200 μM
Procedure: Protection against Hydrogen Peroxide-induced Cell-death. N2a cells grown in 96-well plates were exposed to a test compound (40 μM) for 2 hrs before addition of hydrogen peroxide (200 μM). After 40 min of incubation with hydrogen peroxide, ALAMARBLUE® regent (10% v/v) was added to the wells. Fluorescence reading was taken 2 hrs after the addition of the ALAMARBLUE® regent. Cell-viability was calculated as a percentage of relative fluorescence unit (RFU) compared to control.
as §2

[3] = Pharmacokinetics in CD-1 mice; assay type: in vivo, mouse; details: CD-1 mice; for F: 10 mg/kg P.O. vs 2 mg/kg i.v.; for AUC / Cmax / half-life: mouse, plasma, 2 mg/kg i.v. or 10 mg/kg P.O.
Procedure: Pharmacokinetics of test compounds were assessed in CD-1 mice. The compounds were formulated at 1 mg/mL in DMSO/Tween 80/water (10/10/80, vol/vol/vol) and dosed at 2 mg/kg intravenous (i.v.) or 10 mg/kg by oral gavage (P.O.) in triplicate. Blood was drawn at 0.25 h, 0.5 h, 1 hr, 2 hrs, 4 hrs, 8 hrs, and 24 hrs into EDTA containing tubes and plasma was harvested by centrifugation. Plasma (10 μL) containing 50% acetonitrile in water (5 μL) was added to 200 μL of ACN containing an internal standard. The samples were vortexed for 30 s. After centrifugation at […] and 4,000 rpm for 15 min, the supernatant was diluted 3 times with water. Then, 20 μL of diluted supernatant was injected into the LC/MS/MS system for quantitative analysis. The samples were injected onto an Agilent ZORBAX XDB-Phenyl 5μ column (50×2.10 mm). Mobile Phase A was water with 0.1% formic acid. Mobile Phase B was acetonitrile with 0.1% formic acid. Separation was achieved using a gradient of 70% A/30% B to 0% A/100% B over 2.10 min. A Shimadzu LCMS-8050 equipped with a turbo ion spray source was used for all analytical measurements. A positive ion MRM method was developed. Peak areas of the product ion were measured against the peak areas of the internal standard. Data was fit using WinNonLin (Pharsight Corporation, Mountain View, CA).

HEK293 cells = assay: Protection against thapsigargin (TG)-induced cell death, HEK293; assay type: cell-based, human; details: compound 20 μM; thapsigargin 15 μM; 24 hrs
Procedure: as §1, §2

SMILES	Increase in Vmax at 10 μM (SERCA (SR vesicles))	N2a Cells (TG-induced) cell rescue (N2a cells [1])	N2a Cells (H2O2-induced) cell rescue (N2a cells [2])	other results
COc1ccc(CCC(=O)Nc2cccc3ccc(C)nc23)cc1 [Compound A23, 3-(4-Methoxyphenyl)-N-(2-methylquinolin-8-yl)propanamide]	A′ (A′ represents an increase greater than 50%)			
CC(C)Oc1cccc(C(=O)Nc2cccc3ccc(C(=O)O)nc23)c1 [Compound E2, 8-(3-Isopropoxybenzamido)quinoline-2-carboxylic acid]		A (A represents a value greater than 50% cell rescue)		
Cc1ccc2cccc(NC(=O)c3sc(Br)cc3Br)c2n1 [Compound G6, 3,5-Dibromo-N-(2-methylquinolin-8-yl)thiophene-2-carboxamide]	C′ (C′ represents an increase no greater than 20%)		A (A represents a value greater than 50% cell rescue)	EC50 (CSM14.1 cells): < 20 µM
Cc1ccc2cccc(NC(=O)c3ccc(C)s3)c2n1 [Compound G2, 5-Methyl-N-(2-methylquinolin-8-yl)thiophene-2-carboxamide]	A′ (A′ represents an increase greater than 50%)		A (A represents a value greater than 50% cell rescue)	EC50 (CSM14.1 cells): < 20 µM; F [3]: 0.85%; AUC [3]: 4.5 ng·h/mL; Cmax [3]: 20 nM; half-life [3]: 33.6 min
Cc1ccc2cccc(NC(=O)c3cc(Br)c(Br)s3)c2n1 [Compound G7, 4,5-Dibromo-N-(2-methylquinolin-8-yl)thiophene-2-carboxamide]	A′ (A′ represents an increase greater than 50%)		A (A represents a value greater than 50% cell rescue)	EC50 (CSM14.1 cells): < 20 µM
Cc1ccc2cccc(NC(=O)c3ccc(Br)s3)c2n1 [Compound B1, 5-Bromo-N-(2-methylquinolin-8-yl)thiophene-2-carboxamide]	B′ (B′ represents an increase between 20 to 50%)	B (B represents a value between 10% to 50% cell rescue)	A (A represents a value greater than 50% cell rescue)	F [3]: 2.9%; AUC [3]: 21 ng·h/mL; Cmax [3]: 80 nM; half-life [3]: 42 min
CC(C)Oc1ccc(C(=O)Nc2cccc3ccc(C(=O)O)nc23)cc1 [Compound E1, 8-(4-Isopropoxybenzamido)quinoline-2-carboxylic Acid]		A (A represents a value greater than 50% cell rescue)		
Cc1cc(C)n(-c2ccc3cccc(NC(=O)c4ccc(OC(C)C)cc4)c3n2)n1 [Compound F2, N-(2-(3,5-Dimethyl-1H-pyrazol-1-yl)quinolin-8-yl)-4-isopropoxybenzamide]		A (A represents a value greater than 50% cell rescue)		
Cc1ccc2cccc(NC(=O)c3ccc(C#N)cc3)c2n1 [Compound B4, 4-Cyano-N-(2-methylquinolin-8-yl)benzamide]		B (B represents a value between 10% to 50% cell rescue)	B (B represents a value between 10% to 50% cell rescue)	HEK293 Cells (TG-induced) cell rescue (HEK293 cells): A (A represents a value greater than 50% cell rescue)
Cc1cc(C)n(-c2ccc3cccc(NC(=O)c4ccc(Br)s4)c3n2)n1 [Compound F3, 5-Bromo-N-(2-(3,5-dimethyl-1H-pyrazol-1-yl)quinolin-8-yl)thiophene-2-carboxamide]		A (A represents a value greater than 50% cell rescue)		
Cc1ccc2cccc(NC(=O)c3cc4ccccc4s3)c2n1 [Compound B2, N-(2-Methylquinolin-8-yl)benzo[b]thiophene-2-carboxamide]	A′ (A′ represents an increase greater than 50%)	A (A represents a value greater than 50% cell rescue)	B (B represents a value between 10% to 50% cell rescue)	
CC(C)Oc1ccc(C(=O)Nc2cccc3cccnc23)cc1 [Compound A11, 4-Isopropoxy-N-(quinolin-8-yl)benzamide]	A′ (A′ represents an increase greater than 50%)			
Cc1ccc2cccc(NC(=O)c3ccc(C(C)(C)C)cc3)c2n1 [Compound A4, 4-(tert-Butyl)-N-(2-methylquinolin-8-yl)benzamide]	B′ (B′ represents an increase between 20 to 50%)			Cell Survival (CSM14.1 cells): D (D represents a value no greater than 1%); EC50 (CSM14.1 cells): > 100 µM
CCOc1ccccc1C(=O)Nc1cccc2ccc(C)nc12 [Compound A10, 2-Ethoxy-N-(2-methylquinolin-8-yl)benzamide]	C′ (C′ represents an increase no greater than 20%)			
O=C(O)c1ccc2cccc(NC(=O)c3ccc(Br)s3)c2n1 [Compound E3, 8-(5-Bromothiophene-2-carboxamido)quinoline-2-carboxylic Acid]		A (A represents a value greater than 50% cell rescue)		
O=C(O)c1ccc2cccc(NC(=O)c3cc4ccccc4s3)c2n1 [Compound E4, 8-(Benzo[b]thiophene-2-carboxamido)quinoline-2-carboxylic Acid]		B (B represents a value between 10% to 50% cell rescue)		
O=C(Nc1cccc2cccnc12)c1cccc(F)c1 [Compound A7, 3-Fluoro-N-(quinolin-8-yl)benzamide]	B′ (B′ represents an increase between 20 to 50%)			
Cc1cc(C)n(-c2ccc3cccc(NC(=O)c4cc5ccccc5s4)c3n2)n1 [Compound F4, N-(2-(3,5-Dimethyl-1H-pyrazol-1-yl)quinolin-8-yl)benzo[b]thiophene-2-carboxamide]		B (B represents a value between 10% to 50% cell rescue)		
Cc1cc(C)n(-c2ccc3cccc(NC(=O)c4cccc(OC(C)C)c4)c3n2)n1 [Compound F1, N-(2-(3,5-Dimethyl-1H-pyrazol-1-yl)quinolin-8-yl)-3-isopropoxybenzamide]		A (A represents a value greater than 50% cell rescue)		
Cc1ccc2cccc(NC(=O)c3cc4ccccc4o3)c2n1 [Compound A27, N-(2-Methylquinolin-8-yl)benzofuran-2-carboxamide]	A′ (A′ represents an increase greater than 50%)		A (A represents a value greater than 50% cell rescue)	EC50 (CSM14.1 cells): < 20 µM
Cc1ccc2cccc(NC(=O)c3ccc(OC(F)(F)F)cc3)c2n1 [Compound C11, 4-Trifluoromethoxy-N-(2-methylquinolin-8-yl)benzamide]				Cell Survival (CSM14.1 cells): D (D represents a value no greater than 1%)

Source: patent US11890279B2, “Quinolines that modulate SERCA and their use for treating disease” (Neurodon Corporation, priority 2020, dated 2024)
